Here are results for 24 compounds from US20240246995A1, “PYRIMIDINONE DERIVATIVE AND PREPARATION METHOD THEREFOR, PHARMACEUTICAL COMPOSITION, AND USE” (SHANGHAI SIMR BIOTECHNOLOGY CO., LTD., priority 2021, published 2024).

Structures are written as SMILES.

This assay deals with T1, Lipoprotein-Related Phospholipase A2 (Lp-PLA2) in Human Plasma (Homo sapiens, UniProt Q13093).
T1 construct: 40 μL of equally-divided and thawed mixed human plasma is pre-added; from tissue; host or cells: mixed (pooled) human plasma
T1 sequence (Q13093 22-441): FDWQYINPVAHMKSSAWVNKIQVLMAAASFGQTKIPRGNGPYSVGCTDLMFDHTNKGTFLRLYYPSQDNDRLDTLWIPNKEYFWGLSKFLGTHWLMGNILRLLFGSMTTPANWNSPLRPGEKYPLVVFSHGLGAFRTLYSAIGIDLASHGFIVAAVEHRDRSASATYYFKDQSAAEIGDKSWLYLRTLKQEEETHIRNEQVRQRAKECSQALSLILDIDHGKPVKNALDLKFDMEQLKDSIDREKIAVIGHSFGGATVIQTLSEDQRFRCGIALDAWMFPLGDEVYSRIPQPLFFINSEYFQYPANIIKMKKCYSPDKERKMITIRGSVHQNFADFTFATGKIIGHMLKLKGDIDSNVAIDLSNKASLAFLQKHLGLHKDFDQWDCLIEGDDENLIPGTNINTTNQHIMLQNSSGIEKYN
As to the kind of experiment: Determination of Lp-PLA2 in human plasma (Thio-PAF assay). The note with it: mixed human plasma, 2-thio-PAF substrate, 30 minutes pre-incubation at room temperature. It is filed as biochemical. An excerpt:
Determination of Lipoprotein-Related Phospholipase A2 (Lp-PLA2) in Human Plasma.
Human plasma determination utilizes a thioester analogue of phosphatidylcholine (PAF), where hydrolysis leads to the formation of phospholipids containing free thiol groups. The amount of the thiol groups is continuously determined by reacting with CPM (7-diethylamino-3-(4′-maleimidophenyl)-4-methylcoumarin), which is maleimide with increased fluorescence after Michael addition of the thiol groups. This determination can detect the activity of Lp-PLA2 in human plasma, for example, determined by the specific inhibition of the Lp-PLA2 inhibitors.
Thio-PAF determination, as quenched 75 μL determination, is carried out. A compound source plate is prepared by preparing a 1:3 (volume) series of diluents of each compound in pure DMSO on a 96-well microplate. A Rainin multi-channel pipette is used to transfer 3 μL of a compound on the compound source plate into a 96-well microplate where 57 μL of a determination buffer is pre-added, and the compound on the source plate is diluted by 20 folds. The above determination buffer contains 50 mM HEPES (pH 7.4), 150 mM NaCl, and 1 mM CHAPS. A Rainin multi-channel pipette is used to transfer 1 μL of the compound subjected to 20-fold dilution into a 96-well Greiner 655076 (black) microplate where 40 μL of equally-divided and thawed mixed human plasma is pre-added. The plate is oscillated for 20 seconds in an Elisa plate oscillator to be mixed evenly. After 30 minutes of pre-incubation at the room temperature, a Rainin multi-channel pipette is used to add 10 μL of a substrate solution to a 96-well Greiner 655076 (black) microplate, and the substrate solution contains 2.5 mM 2-thio-PAF [from ethanol mother liquor], 32 μM CPM [from DMSO mother liquor] and 3.2 mM NEM (N-ethylmaleimide) [newly prepared in DMSO for each experiment] in a determination buffer composed of 50 mM HEPES (pH 7.4), 150 mM NaCl, and 1 mM CHAPS. After 2 minutes, 25 μL of a 5% trifluoroacetic acid (TFA) aqueous solution is used for quenching the reaction. The plate is centrifuged at 2000 rpm for 1 minute. A Biotek Synergy H1 (H1MF) Elisa reader is used to read the plate at ex:380/em:485. GraphPad Prism 6.0 and Excel are used for IC50 data, curve, and QC analysis.
One may read the IC50 as the midpoint of a concentration-inhibition curve. In the case of `Cc1cc(Oc2c(F)cc(COc3cc4n(c(=O)n3)CCC3(C)CCCN43)cc2F)ccn1` (stereo not drawn) [Example 35, 2-((3,5-fluoro-4-((2-methylpyrid-4-yl)oxy)benzyl)oxy)-7a-methyl-6,7,7a, 8,9,10-hexahydro-4H-pyrimidinyl [1,6-a]pyrrolo[1,2-c] pyrimidine-4-one], the 50% inhibitory concentration (IC50) was found to be 23.2 nM.
In the case of `CC12CCCN1c1cc(OCc3cc(F)c(Oc4ccnc(Cl)c4)c(F)c3)nc(=O)n1CC2` (stereo not drawn) [Example 36] it was 17.4 nM; in that of `CC12CCCN1c1cc(OCc3ccc(F)c(C#N)c3)nc(=O)n1CC2` (stereo not drawn) [Example 37], 34 nM.
For `CCC12CCCN1c1cc(OCc3cc(F)c(Oc4ccnc(C(F)(F)F)c4)c(F)c3)nc(=O)n1CC2` (stereo not drawn) [Example 38, 2-((3,5-difluoro-4-((2-(trifluoromethyl)pyrid-4-yl)oxy)benzyl)oxy)-7a-ethyl-6,7,7a,8,9,10-hexahydro-4H-pyrimido[1,6-a] pyrrolo[1,2-c] pyrimidine-4-one], the half-maximal inhibitory concentration (IC50) was 8.1 nM.
On to `CCC12CCCN1c1cc(OCc3cc(F)c(Oc4ccc(Cl)c(C(F)(F)F)c4)c(F)c3)nc(=O)n1CC2` (stereo not drawn) [Example 39, 2-((4-(4-chloro-3-(trifluoromethyl)phenoxy)-3,5-difluorobenzyl)oxy)-7a-ethyl-6,7,7a,8,9, 10-hexahydro-4H-pyrimidinyl[1,6-a] pyrrolo[1,2-c] pyrimidine-4-one], for which the IC50 was 33.1 nM.
The value for `CCC12CCCN1c1cc(OCc3ccc(Oc4cccc(C(F)(F)F)c4)c(C#N)c3)nc(=O)n1CC2` (stereo not drawn) [Example 40] was 10.7 nM; that for `CCC12CCCN1c1cc(OCCc3ccc(Oc4ccc(Cl)c(C(F)(F)F)c4)cc3)nc(=O)n1CC2` (stereo not drawn) [Example 41, 2-(4-(4-chloro-3-(trifluoromethyl)phenoxy)phenyl-ethoxy)-7a-ethyl-6,7,7a, 8,9,10-hexahydro-4H-pyrimidine [1,6-a]pyrrole[1,2-c]pyrimidine-4-one] was 235 nM.
With `O=c1nc(OCc2ccc(Oc3ccnc(C(F)(F)F)c3)c(F)c2)cc2n1CCC1CCCCN21` (stereo not drawn) [Example 42, 2-((3-fluoro-4-((2-(trifluoromethyl)pyrid-4-yl)oxy)benzyl)oxy)-7,7a,8,9,10,11-hexahydro-4H,6H-pyridine[1,2-c]pyrimidine[1,6-a]pyrimidine-4-one], the IC50 was 24.4 nM.
Regarding `O=c1nc(OCc2cc(F)c(Oc3ccc(Cl)c(C(F)(F)F)c3)c(F)c2)cc2n1CCC1CCCCN21` (stereo not drawn) [Example 43, 2-((4-(4-chloro-3-(trifluoromethyl)phenoxy)-3,5-di-fluorobenzyl)oxy)-7,7a,8,9,10,11-hexahydro-4H,6H-pyri-dyl[1,2-c]pyrimido [1,6-a]pyrimidine-4-one], the IC50 amounted to 11.9 nM.
The value for `N#Cc1cc(COc2cc3n(c(=O)n2)CCC2CCCCN32)ccc1Oc1cccc(C(F)(F)F)c1` (stereo not drawn) [Example 44] was 14.9 nM; that for `O=c1nc(OCc2cc(F)c(Oc3cnc(C(F)(F)F)nc3)c(F)c2)cc2n1CCC1CCCCN21` (stereo not drawn) [Example 45, 2-((3,5-difluoro-4-((2-(trifluoromethyl)pyrimidin-5-yl)oxy)benzyl)oxy)-7,7a,8,9,10,11-hexahydro-4H,6H-pyridino[1,2-c]pyri-mido[1,6-a] pyrimidine-4-one] was 66.5 nM; that for `O=c1nc(OCCc2ccc(Oc3ccc(Cl)c(C(F)(F)F)c3)cc2)cc2n1CCC1CCCCN21` (stereo not drawn) [Example 46, 2-(4-(4-chloro-3-(trifluoromethyl)phenoxy)phenylethoxy)-7,7a,8,9,10,11-hexahydro-4H, 6H-pyridyl[1,2-c] pyrimidinyl[1,6-a] pyrimidine-4-one] was 220 nM.
In the case of `O=c1nc(OCc2ccc(Oc3ccnc(C(F)(F)F)c3)c(F)c2)cc2n1CC[C@@H]1CCCCN21` [Example 47, (S)-2-((3-fluoro-4-((2-(trifluoromethyl)pyrid-4-yl)oxy)benzyl)oxy)-7,7a, 8,9,10,11-hexahydro-4H,6H-pyridino[1,2-c] pyrimidine[1,6-a] pyrimidine-4-one] it was 14.6 nM; in that of `COc1c(OCc2ccc(Oc3ccnc(C(F)(F)F)c3)c(F)c2)nc(=O)n2c1N1CCCC[C@H]1CC2` [Example 48], 5.1 nM.
For the compound `CC12CCCCN1c1cc(OCc3ccc(Oc4ccnc(C(F)(F)F)c4)c(F)c3)nc(=O)n1CC2` (stereo not drawn) [Example 49, 2-((3-fluoro-4-((2-(trifluoromethyl)pyrid-4-yl)oxy)benzyl)oxy)-7a-methyl-7,7a,8,9,10,11-hexahydro-4H,6H-pyridino[1,2-c] pyrimidine[1,6-a] pyrimidine-4-one], the 50% inhibitory concentration (IC50) is 1.6 nM.
The value for `Cc1cc(Oc2c(F)cc(COc3cc4n(c(=O)n3)CCC3(C)CCCCN43)cc2F)ccn1` (stereo not drawn) [Example 50, 2-((3,5-difluoro-4-((2-methylpyrid-4-yl)oxy)benzyl)oxy)-7a-methyl-7,7a,8,9,10,11-hexahydro-4H,6H-pyridino [1,2-c]pyrimidine [1,6-a]pyrimidine-4-one] was 12.9 nM; that for `O=c1nc(OCc2cc(F)c(Oc3ccnc(C(F)(F)F)c3)c(F)c2)cc2n1CCC1COCCN21` (stereo not drawn) [Example 51, 2-((3,5-difluoro-4-((2-(trifluoromethyl)pyrid-4-yl)oxy)benzyl)oxy)-6,7,7a,8,10,11-hexahydro-4H-pyrimidinyl [6′,1′:2,3]pyrimidine [6,1-c][1,4] oxazin-4-one] was 6.6 nM.
As for `O=c1nc(OCc2cc(F)c(Oc3ccc(Cl)c(C(F)(F)F)c3)c(F)c2)cc2n1CCC1COCCN21` (stereo not drawn) [Example 52, 2-((4-(4-chloro-3-(trifluoromethyl)phenoxy)-3,5-di-fluorobenzyl)oxy)-6,7,7a,8,10,11-hexahydro-4H-pyrimidinyl [6′,1′:2,3] pyrimido[6,1-c][1,4] oxazin-4-one], the IC50 was 10.6 nM.
The value for `N#Cc1cc(COc2cc3n(c(=O)n2)CCC2COCCN32)ccc1Oc1cccc(C(F)(F)F)c1` (stereo not drawn) [Example 53] was 7.3 nM.
Regarding `O=c1nc(OCc2cc(F)c(Oc3ccnc(OC(F)(F)F)c3)c(F)c2)cc2n1CCC1COCCN21` (stereo not drawn) [Example 54, 2-((3,5-difluoro-4-((2-(trifluoro-methoxy)pyrid-4-yl)oxy)benzyl)oxy)-6,7,7a,8,10,11-hexahydro-4H-pyrimidinyl [6′,1′:2,3] pyrimidine [6,1-c][1,4] oxazin-4-one], the IC50 is 5.3 nM.
In the case of `O=c1nc(OCc2cc(F)c(Oc3cnc(C(F)(F)F)nc3)c(F)c2)cc2n1CCC1COCCN21` (stereo not drawn) [Example 55], the IC50 worked out at 13.7 nM.
Take `O=c1nc(OCCc2ccc(Oc3ccc(Cl)c(C(F)(F)F)c3)cc2)cc2n1CCC1COCCN21` (stereo not drawn) [Example 56, 2-(4-(4-chloro-3-(trifluoromethyl)phenoxy)phenyl-ethoxy)-6,7,7a,8,10,11-hexahydro-4H-pyrimidinyl [6′,1′:2,3] pyrimidinyl[6,1-c] [1,4]oxazin-4-one]: the concentration for half-maximal inhibition (IC50) was determined as 20.1 nM.
As to `O=c1nc(OCc2ccc(Oc3ccnc(C(F)(F)F)c3)c(F)c2)c(F)c2n1CC[C@]13CO[C@H](CN21)C3` [Example 57, (7aS,10S)-1-fluoro-2-((3-fluoro-4-((2-(trifluoromethyl)pyrid-4-yl)oxy)benzyl)oxy)-6,7,10, 11-tetrahydro-4H, 8H-7a,10-methyl-pyrimidinyl[6′,1′: 2,3]pyrimidinyl [6,1-c][1,4]oxazin-4-one], the concentration for half-maximal inhibition (IC50) was 3.3 nM.
Regarding `O=c1nc(OCc2ccc(Oc3ccnc(C(F)(F)F)c3)c(F)c2)c(Cl)c2n1CC[C@]13CO[C@H](CN21)C3` [Example 58, (7aS,10S)-1-chloro-2-((3-fluoro-4-((2-(trifluoromethyl)pyrid-4-yl)oxy)benzyl)oxy)-6,7,10, 11-tetrahydro-4H, 8H-7a,10-methyl-pyrimidinyl[6′,1′: 2,3]pyrimidinyl [6,1-c][1,4]oxazin-4-one], the IC50 amounted to 3.4 nM.
